# Test results from patent publication US20250011289A1, “1H-BENZO[B]AZEPIN-2(3H)-ONE COMPOUNDS, COMPOSITIONS AND METHODS OF TREATING CANCER” (Chengdu Anticancer Bioscience, Ltd., priority 2021, published 2025).
# Like-named read-outs stand apart in the source and are kept apart here.
# Columns and labels:
# RPE-Neo or RPE-MYC cells = experiment: MTT assay of cellular proliferation; type: cell-based; settings: compounds at 20 nM to 20 μM; read-out: Min. Effective conc. for Proliferative arrest (>50%)
# Experimental: Human cancer cell lines were obtained from ATCC and cultured in DMEM (Gibco, Cleveland. TN, USA) supplemented with 5% fetal bovine serum (Gibco), penicillin (100 U/mL)-streptomycin (100 μg/mL) (Gibco, Cat. No. 15140-122), 2 mM L-glutamine (Gibco, 200 mM solution, Cat. No. 25030081), and 1 mM sodium pyruvate (Gibco, 100 mM solution, Cat. No. 11360070) at 37° C. in a humidified incubator that was maintained at 5% CO2.
# (§1) Screening was conducted as described before (Li et al. 2019). Briefly, RPE-Neo or RPE-MYC or RPE-MYC expressing an EGFP-Histone 2B fusion protein were passaged as batches of 96-well plates, 18-24 hours before exposure to the chemical compounds of the present disclosure at concentrations from 20 nM to 20 μM. At 24, 48 or 72 hours after initiation of treatment, cells were analyzed for either an arrest in mitosis or a change in DNA content by GE 1N-Cell Analyzer 2000. MTT assays of cellular proliferation were performed as previously described (Li et al. 2019).
# (§2) As set forth in table 2 below, an values of greater than or equal to 1 nM and less than or equal to 1.0 μM is marked “A”; a value greater than 1.00 μM and less than or equal to 10.0 μM is marked “B”; a value greater than 10.0 μM and less than or equal to 30.0 μM is marked “C”; and a value greater than 30.0 μM and less than 1000 μM is marked “D.”
# [1] = system: RPE-Neo or RPE-MYC or RPE-MYC expressing an EGFP-Histone 2B fusion protein; experiment: Phenotypic screening assay (arrest in mitosis or change in DNA content, IN-Cell Analyzer); type: cell-based; settings: compounds at 20 nM to 20 μM, analysed 24, 48 or 72 hours after initiation of treatment
# Experimental: as §1, §2
# [2] = read-out: Min. Effective conc. for Along with Cell Death
# [3] = read-out: Min. Effective conc. for Mitotic Arrest (>5%)
# [4] = read-out: Min. Effective conc. for Polyploidy (≥5%)
Compound,minimal effective concentration (RPE-Neo or RPE-MYC cells) [µM],"minimal effective concentration [1, 2] [µM]","minimal effective concentration [1, 3] [µM]","minimal effective concentration [1, 4] [µM]"
"Cc1ccc(CN2C(=O)CC(c3nnc(C4CC4)o3)=C(Br)c3ccc(C#N)cc32)cc1F [Compound 20-11, 5-bromo-4-(5-cyclopropyl-1,3,4-oxadiazol-2-yl)-1-(3-fluoro-4-methylbenzyl)-2-oxo-2,3-dihydro-1H-benzo[b]azepine-8-carbonitrile]",0.001 to 1,0.001 to 1,0.001 to 1,0.001 to 1
"COc1ccc(C(=O)N2CCC(c3nnc(C4CC4)o3)=C(Br)c3ccccc32)cc1F [Compound 34-2, (5-bromo-4-(5-cyclopropyl-1,3,4-oxadiazol-2-yl)-2,3-dihydro-1H-benzo[b]azepin-1-yl)(3-fluoro-4-methoxyphenyl)methanone]",0.001 to 1,0.001 to 1,0.001 to 1,0.001 to 1
"COCC1=C(OC)c2ccccc2N(Cc2ccc(C)c(F)c2)C(=O)C1 [Compound 28-1, 1-(3-fluoro-4-methylbenzyl)-5-methoxy-4-(methoxymethyl)-1,3-dihydro-2H-benzo[b]azepin-2-one]",1 to 10,1 to 10,1 to 10,1 to 10
Cc1ccc(CN2C(=O)CC(c3nnc(C4CC4)o3)=C(C3CC3)c3ccccc32)cc1F [Compound 20-29],1 to 10,1 to 10,1 to 10,1 to 10
"Cc1ccc(CN2C(=O)CC(c3nnc(C4CC4)o3)=C(Br)c3ccc(C(N)=O)cc32)cc1F [Compound 20-22, 5-bromo-4-(5-cyclopropyl-1,3,4-oxadiazol-2-yl)-1-(3-fluoro-4-methylbenzyl)-2-oxo-2,3-dihydro-1H-benzo[b]azepine-8-carboxamide]",0.001 to 1,0.001 to 1,0.001 to 1,0.001 to 1
"Cc1ccc(CN2C(=O)CC(C=O)=C(Cl)c3ccccc32)cc1F [Compound 7-1, 5-chloro-1-(3-fluoro-4-methylbenzyl)-2-oxo-2,3-dihydro-1H-benzo[b]azepine-4-carbaldehyde]",0.001 to 1,0.001 to 1,0.001 to 1,0.001 to 1
"Cc1ccc(CN2C(=O)CC(c3nc[nH]n3)=C(Br)c3ccccc32)cc1F [Compound 22-1, 5-bromo-1-(3-fluoro-4-methylbenzyl)-4-(1H-1,2,4-triazol-3-yl)-1,3-dihydro-2H-benzo[b]azepin-2-one]",1 to 10,1 to 10,1 to 10,1 to 10
"Cc1ccc(CN2C(=O)CC(c3nnc(C4CC4)o3)=C(Br)c3c(F)cccc32)cc1F [Compound 20-16, 5-bromo-4-(5-cyclopropyl-1,3,4-oxadiazol-2-yl)-6-fluoro-1-(3-fluoro-4-methylbenzyl)-1,3-dihydro-2H-benzo[b]azepin-2-one]",0.001 to 1,0.001 to 1,0.001 to 1,0.001 to 1
"Cc1ccc(CN2C(=O)CC(c3nnc(C4CC4)o3)=C(Br)c3ccc(OCCCN4CCOCC4)cc32)cc1F [Compound 20-23, 5-bromo-4-(5-cyclopropyl-1,3,4-oxadiazol-2-yl)-1-(3-fluoro-4-methylbenzyl)-8-(3-morpholinopropoxy)-1,3-dihydro-2H-benzo[b]azepin-2-one]",0.001 to 1,0.001 to 1,0.001 to 1,0.001 to 1
"COc1ccc(CN2C(=O)CC(c3nnc(C4CC4)o3)=C(Br)c3ccccc32)cc1 [Compound 20-21, 5-bromo-4-(5-cyclopropyl-1,3,4-oxadiazol-2-yl)-1-(4-methoxybenzyl)-1,3-dihydro-2H-benzo[b]azepin-2-one]",0.001 to 1,0.001 to 1,0.001 to 1,0.001 to 1
Cc1ccc(CN2C(=O)CC(c3ccon3)=C(Br)c3ccccc32)cc1F [Compound 13-2],0.001 to 1,0.001 to 1,0.001 to 1,0.001 to 1
"Cc1ccc(CN2C(=O)CC(c3nnc(C4CC4)o3)=C(Br)c3ccccc32)cc1F [Compound 20-3, 5-bromo-4-(5-cyclopropyl-1,3,4-oxadiazol-2-yl)-1-(3-fluoro-4-methylbenzyl)-1,3-dihydro-2H-benzo[b]azepin-2-one]",0.001 to 1,0.001 to 1,0.001 to 1,0.001 to 1
"Cc1nnc(C2=C(Cl)c3ccccc3N(Cc3ccc(C)c(F)c3)C(=O)C2)o1 [Compound 20-1, 5-chloro-1-(3-fluoro-4-methylbenzyl)-4-(5-methyl-1,3,4-oxadiazol-2-yl)-1,3-dihydro-2H-benzo[b]azepin-2-one]",0.001 to 1,0.001 to 1,0.001 to 1,0.001 to 1
"Cc1ccc(CN2C(=O)CC(CO[C@H]3CCOC3)=C(Br)c3ccccc32)cc1F [Compound 44-6, (S)-5-bromo-1-(3-fluoro-4-methylbenzyl)-4-(((tetrahydrofuran-3-yl)oxy)methyl)-1,3-dihydro-2H-benzo[b]azepin-2-one]",0.001 to 1,0.001 to 1,0.001 to 1,0.001 to 1
"CCOCC1=C(Cl)c2ccccc2N(Cc2ccc(C)c(F)c2)C(=O)C1 [Compound 24-2, 5-chloro-4-(ethoxymethyl)-1-(3-fluoro-4-methylbenzyl)-1,3-dihydro-2H-benzo[b]azepin-2-one]",0.001 to 1,0.001 to 1,0.001 to 1,0.001 to 1
"COc1ccc2c(c1)N(Cc1ccc(C)c(F)c1)C(=O)CC(c1cnco1)=C2Cl [Compound 8-5, 5-chloro-1-(3-fluoro-4-methylbenzyl)-8-methoxy-4-(oxazol-5-yl)-1,3-dihydro-2H-benzo[b]azepin-2-one]",0.001 to 1,0.001 to 1,0.001 to 1,0.001 to 1
"Cc1ccc2c(c1)N(Cc1ccc(C)c(F)c1)C(=O)CC(c1cnco1)=C2Br [Compound 8-13, 5-bromo-1-(3-fluoro-4-methylbenzyl)-8-methyl-4-(oxazol-5-yl)-1,3-dihydro-2H-benzo[b]azepin-2-one]",0.001 to 1,0.001 to 1,0.001 to 1,0.001 to 1
"Cc1ccc(CN2C(=O)CC(c3nnc(C4CC4)o3)=C(Br)c3ccc(F)cc32)cc1F [Compound 20-7, 5-bromo-4-(5-cyclopropyl-1,3,4-oxadiazol-2-yl)-8-fluoro-1-(3-fluoro-4-methylbenzyl)-1,3-dihydro-2H-benzo[b]azepin-2-one]",0.001 to 1,0.001 to 1,0.001 to 1,0.001 to 1
"COC1=C(c2cnco2)CC(=O)N(Cc2ccc(C)c(F)c2)c2ccccc21 [Compound 26-1, 1-(3-fluoro-4-methylbenzyl)-5-methoxy-4-(oxazol-5-yl)-1,3-dihydro-2H-benzo[b]azepin-2-one]",1 to 10,1 to 10,1 to 10,1 to 10
"Cc1ccc(CN2C(=O)CC(c3cnco3)=C(Cl)c3ccccc32)cc1F [Compound 8-1, 5-chloro-1-(3-fluoro-4-methylbenzyl)-4-(oxazol-5-yl)-1,3-dihydro-2H-benzo[b]azepin-2-one]",0.001 to 1,0.001 to 1,0.001 to 1,0.001 to 1
"Cc1ccc(CN2C(=O)CC(c3nnc(C4CC4)o3)=C(Cl)c3ccccc32)cc1F [Compound 20-5, 5-chloro-4-(5-cyclopropyl-1,3,4-oxadiazol-2-yl)-1-(3-fluoro-4-methylbenzyl)-1,3-dihydro-2H-benzo[b]azepin-2-one]",0.001 to 1,0.001 to 1,0.001 to 1,0.001 to 1
"C#Cc1ccc2c(c1)N(Cc1ccc(C)c(F)c1)C(=O)CC(c1nnc(C3CC3)o1)=C2Br [Compound 20-20, 5-bromo-4-(5-cyclopropyl-1,3,4-oxadiazol-2-yl)-8-ethynyl-1-(3-fluoro-4-methylbenzyl)-1,3-dihydro-2H-benzo[b]azepin-2-one]",0.001 to 1,0.001 to 1,0.001 to 1,0.001 to 1
